In assay [1] the target is T1, 5-hydroxytryptamine receptor 1A (Homo sapiens, UniProt P08908).
T1 sequence (P08908 whole entry): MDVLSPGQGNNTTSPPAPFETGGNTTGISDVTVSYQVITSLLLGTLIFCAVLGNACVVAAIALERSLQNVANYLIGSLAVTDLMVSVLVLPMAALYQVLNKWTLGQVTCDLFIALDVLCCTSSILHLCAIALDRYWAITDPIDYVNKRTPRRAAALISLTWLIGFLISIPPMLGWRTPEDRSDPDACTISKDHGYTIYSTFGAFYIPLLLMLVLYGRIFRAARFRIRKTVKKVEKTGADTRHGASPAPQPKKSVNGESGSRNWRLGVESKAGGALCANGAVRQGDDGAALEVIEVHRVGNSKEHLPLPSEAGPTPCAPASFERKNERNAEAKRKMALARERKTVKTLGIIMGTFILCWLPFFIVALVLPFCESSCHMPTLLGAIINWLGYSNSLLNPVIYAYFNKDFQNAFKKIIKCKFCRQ
Kind of assay: Binding affinity to 5-HT1A (unknown origin).

For assay [2], the target named is T2, 5-hydroxytryptamine receptor 2A (Homo sapiens, UniProt P28223). Description: Binding affinity to 5-HT2A (unknown origin).
T2 sequence (P28223 whole entry): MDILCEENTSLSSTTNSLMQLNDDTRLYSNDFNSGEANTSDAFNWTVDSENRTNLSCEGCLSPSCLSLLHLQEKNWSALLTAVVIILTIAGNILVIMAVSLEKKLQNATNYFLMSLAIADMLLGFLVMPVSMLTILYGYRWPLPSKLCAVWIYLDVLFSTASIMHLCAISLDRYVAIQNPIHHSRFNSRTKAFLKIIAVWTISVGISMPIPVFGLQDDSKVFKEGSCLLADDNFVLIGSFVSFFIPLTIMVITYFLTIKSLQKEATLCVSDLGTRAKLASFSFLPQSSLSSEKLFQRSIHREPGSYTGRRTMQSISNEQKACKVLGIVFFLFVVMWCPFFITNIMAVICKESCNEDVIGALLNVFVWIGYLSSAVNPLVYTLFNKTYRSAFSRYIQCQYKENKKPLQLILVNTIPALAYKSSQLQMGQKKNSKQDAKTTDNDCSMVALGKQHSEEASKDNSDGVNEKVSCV
Assay [3] deals with T3, 5-hydroxytryptamine receptor 1A (Rattus norvegicus, UniProt P19327).
T3 sequence (P19327 whole entry): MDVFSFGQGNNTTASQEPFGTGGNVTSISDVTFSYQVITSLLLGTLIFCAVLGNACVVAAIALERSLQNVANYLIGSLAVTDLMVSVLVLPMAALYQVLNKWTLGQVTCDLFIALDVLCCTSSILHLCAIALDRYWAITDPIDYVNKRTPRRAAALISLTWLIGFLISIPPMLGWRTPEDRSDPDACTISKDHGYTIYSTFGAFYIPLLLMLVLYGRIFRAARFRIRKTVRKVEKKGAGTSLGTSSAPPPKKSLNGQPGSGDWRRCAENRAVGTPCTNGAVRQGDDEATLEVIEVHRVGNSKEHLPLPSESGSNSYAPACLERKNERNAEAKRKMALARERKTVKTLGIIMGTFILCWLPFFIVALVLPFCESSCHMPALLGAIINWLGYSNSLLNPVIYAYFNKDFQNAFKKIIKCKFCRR
Description: Displacement of [3H]8-OH-DPAT from 5-HT1A receptor in Rattus norvegicus (rat) hippocampus.

Assay [4] concerns the target 5-hydroxytryptamine receptor 2A (Rattus norvegicus, UniProt P14842). Description: Displacement of [3H]Ketanserin from 5-HT2A receptor in rat cortex.
Assay [5] in a line: Selectivity index, ratio of Ki for rat 5-HT1A to Ki for 5-HT2A (unknown origin).
Assay [6] addresses T2, 5-hydroxytryptamine receptor 2A. Kind of assay: Displacement of [3H]Ketanserin from 5-HT2A receptor (unknown origin).

Sequence of 5-hydroxytryptamine receptor 2A (Rattus norvegicus, UniProt P14842) (P14842 whole entry): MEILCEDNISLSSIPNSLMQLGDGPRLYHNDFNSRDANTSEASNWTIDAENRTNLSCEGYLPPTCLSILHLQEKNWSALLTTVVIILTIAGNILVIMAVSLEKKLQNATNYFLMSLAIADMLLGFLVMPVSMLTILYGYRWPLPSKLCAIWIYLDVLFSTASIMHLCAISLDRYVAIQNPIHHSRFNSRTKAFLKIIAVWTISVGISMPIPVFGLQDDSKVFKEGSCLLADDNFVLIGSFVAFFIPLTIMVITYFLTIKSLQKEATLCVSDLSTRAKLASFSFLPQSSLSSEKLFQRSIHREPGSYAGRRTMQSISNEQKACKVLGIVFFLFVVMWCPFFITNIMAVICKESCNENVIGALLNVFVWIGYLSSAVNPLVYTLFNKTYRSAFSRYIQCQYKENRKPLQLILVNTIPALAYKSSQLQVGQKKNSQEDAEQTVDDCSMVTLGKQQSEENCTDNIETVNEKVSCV

On to `Cn1c(=O)c2c(nc3n2CCCN3CCCN2CCN(c3cccc(Cl)c3)CC2)n(C)c1=O`, for which the Ki is 25.7 nM in assay [1] and 126 nM in assay [2].

`Cn1c(=O)c2c(nc3n(CCCN4CCN(c5cccc(Cl)c5)CC4)c(=O)ccn23)n(C)c1=O`: the Ki was 32.8 nM in assay [1] and 1080 nM in assay [2].

As for `Cn1c(=O)c2c(nc3n2CCC(=O)N3CCCN2CCN(c3cccc(Cl)c3)CC2)n(C)c1=O`, the results for the Ki in assay [1] and in assay [2] were 42.9 nM and 182 nM, respectively.

Regarding `COc1ccccc1N1CCN(CCCNc2nc3c(c(=O)n(C)c(=O)n3C)n2CCCc2ccccc2)CC1`, the Ki in assay [3] (read-out: pKi (converted)) was 8 nM; in assay [4], 304 nM.

Turning to `Cn1c(=O)c2c(nc3n2CCC(=O)N3CCCN2CCN(c3ncccn3)CC2)n(C)c1=O`, the Ki is 42 nM in assay [1] and 28000 nM in assay [2].

Turning to `Cn1c(=O)c2c(nc3n2CCCC(=O)N3CCCN2CCN(c3cccc(Cl)c3)CC2)n(C)c1=O`, the Ki in assay [1] was 60.3 nM; in assay [2], 359 nM.

For the compound `Cn1c(=O)c2c(nc3n2CCCN3CCCCN2CCN(c3ccccc3)CC2)n(C)c1=O`, the Ki in assay [1] is 2.1 nM; in assay [2], 243 nM.

`Cn1c(=O)c2c(nc3n2CCCC(=O)N3CCCN2CCN(c3ncccn3)CC2)n(C)c1=O`: the Ki in assay [1] was 474 nM; in assay [2], 38800 nM.

For the compound `Cn1c(=O)c2c(nc3n2CCCN3CCCN2CCN(c3ncccn3)CC2)n(C)c1=O`, the Ki in assay [1] is 36 nM; in assay [2], 8150 nM.

For the compound `Cn1c(=O)c2c(nc3n2CCCCN3CCCN2CCN(c3cccc(Cl)c3)CC2)n(C)c1=O`, the Ki was 26.7 nM in assay [1] and 330 nM in assay [2].

As for `Cn1c(=O)c2c(nc3n2CCCCN3CCCN2CCN(c3ccccc3)CC2)n(C)c1=O`, the Ki in assay [1] is 31 nM; in assay [2] it was 258 nM.

As to `COc1ccccc1N1CCN(CCCCn2c(=O)ccn3c4c(=O)n(C)c(=O)n(C)c4nc23)CC1`, the Ki is 0.5 nM in assay [3] (read-out: pKi (converted)) and 1070 nM in assay [4].

`Cn1c(=O)c2c(nc(N3CCN(C(c4ccccc4)c4ccccc4)CC3)n2C)n(C)c1=O`: the Ratio Ki in assay [5] was 0.5. Moreover, the results for the Ki in assay [6] and in assay [3] (read-out: Ki) were 22500 nM and 10800 nM, respectively.

In the case of `COc1ccccc1N1CCN(CCCNc2nc3c(c(=O)n(C)c(=O)n3C)n2Cc2ccccc2)CC1`, the Ki in assay [3] (read-out: pKi (converted)) was 48 nM; in assay [4] it was 550 nM.

For `Cn1c(=O)c2c(nc3n(CCCN4CCN(c5ccccc5)CC4)c(=O)ccn23)n(C)c1=O`, the Ki in assay [1] is 25 nM; in assay [2], 4680 nM.

As for `CCOC(=O)Cn1c(NCCCN2CCN(c3ccccc3)CC2)nc2c1c(=O)n(C)c(=O)n2C`, the Ki was 592 nM in assay [1], 220 nM in assay [3] (read-out: pKi (converted)), 449 nM in assay [4] and 1010 nM in assay [2].

`COc1ccccc1N1CCN(CCCN2C(=O)CCn3c2nc2c3c(=O)n(C)c(=O)n2C)CC1`: the Ki in assay [1] is 21.6 nM; in assay [2], 4220 nM.

Turning to `CCCCn1c(NCCCN2CCN(c3ccccc3)CC2)nc2c1c(=O)n(C)c(=O)n2C`, the Ki in assay [1] was 100 nM; in assay [2] it was 614 nM.

Take `Cn1c(=O)c2c(nc(NCCCN3CCN(c4cccc(Cl)c4)CC3)n2CCCc2ccccc2)n(C)c1=O`: the results for the Ki in assay [3] (read-out: pKi (converted)) and in assay [4] were 10 nM and 346 nM, respectively.

On to `Cn1c(=O)c2c(nc(NCCCN3CCN(c4cccc(Cl)c4)CC3)n2CCc2ccccc2)n(C)c1=O`, for which the results for the Ki in assay [3] (read-out: pKi (converted)) and in assay [4] were 210 nM and 119 nM, respectively.

`CC(c1ccccc1)n1c(NCCCN2CCN(c3ccccc3)CC2)nc2c1c(=O)n(C)c(=O)n2C` (centres undefined): the Ki in assay [3] (read-out: pKi (converted)) is 1010 nM; in assay [4], 115 nM.

For `COc1ccccc1N1CCN(CCCN2CCCCn3c2nc2c3c(=O)n(C)c(=O)n2C)CC1`, the figures for the Ki in assay [1] and in assay [2] were 17.2 nM and 562 nM, respectively.

As for `COc1ccccc1N1CCN(CCCN2CCCn3c2nc2c3c(=O)n(C)c(=O)n2C)CC1`, the Ki in assay [1] is 2.8 nM; in assay [2], 486 nM.

Regarding `Cn1cnc2c1c(=O)n(CCCN1CCN(C(c3ccccc3)c3ccccc3)CC1)c(=O)n2C`, the Ratio Ki in assay [5] was found to be 33.9. Further, the figures for the Ki in assay [6] and in assay [3] (read-out: Ki) were 58.6 nM and 1990 nM, respectively.

`Cn1c(=O)c2c(nc3n(CCCCN4CCN(c5ccccc5)CC4)c(=O)ccn23)n(C)c1=O`: the values for the Ki in assay [3] (read-out: pKi (converted)) and in assay [4] were 21.5 nM and 1990 nM, respectively.

Take `COc1ccccc1N1CCN(CCCN2C(=O)CCCn3c2nc2c3c(=O)n(C)c(=O)n2C)CC1`: the Ki was 168 nM in assay [1] and 5010 nM in assay [2].

Turning to `COc1ccccc1N1CCN(CCCn2c(=O)ccn3c4c(=O)n(C)c(=O)n(C)c4nc23)CC1`, the Ki in assay [1] is 10.4 nM; in assay [2], 3880 nM.

On to `Cn1c(=O)c2c(nc3n(CCCCN4CCN(c5cccc(Cl)c5)CC4)c(=O)ccn23)n(C)c1=O`, for which the values for the Ki in assay [3] (read-out: pKi (converted)) and in assay [4] were 8.79 nM and 153 nM, respectively.

Take `Cn1c(=O)c2c(nc(NCCCN3CCN(c4ccccc4)CC3)n2CCCc2ccccc2)n(C)c1=O`: the figures for the Ki in assay [3] (read-out: pKi (converted)) and in assay [4] were 50 nM and 445 nM, respectively.

On to `Cn1c(=O)c2c(nc(NCCCN3CCN(c4ccccc4)CC3)n2C)n(C)c1=O`, for which the Ki in assay [1] was 385 nM; in assay [2] it was 197 nM.

Take `Cn1c(=O)c2c(nc(NCCCN3CCN(C(c4ccccc4)c4ccccc4)CC3)n2C)n(C)c1=O`: the Ratio Ki in assay [5] was found to be 5.1. Also, the Ki in assay [6] amounted to 308 nM; in assay [3] (read-out: Ki) it was 1570 nM.

On to `Cn1c(=O)c2c(nc3n2CCCN3CCCN2CCN(c3ccccc3)CC2)n(C)c1=O`, for which the results for the Ki in assay [1] and in assay [2] were 16 nM and 422 nM, respectively.

(Values after ChEMBL document CHEMBL3046932, “Synthesis, 5-HT1A and 5-HT2A receptor affinity and QSAR study of 1-benzhydryl-piperazine derivatives with xanthine moiety at N4” (Med Chem Res, 2012).)
